1 compound from patent publication US7208502B2, “Methods of treating conditions associated with an Edg-3 receptor” (Maniv Energy Capital, priority 2002, dated 2007) can be followed below.

One experiment deals with Adrenergic α2. The experiment is described as follows: Radioligand binding assay, 3H Rauwolscine. Set-up: species or system Wistar rat. The conditions noted are these: 10 μM; significance criteria ≧50% of max stimulation or inhibition. The protocol: (§1) In order to test the selectivity of compounds, various enzyme assays as well as radioligand binding assays were performed using numerous non-Edg receptor targets as listed below.
(§2) A radioligand binding assay was performed using adrenergic α1 according to the method of Greengrass and Bremner 1979, Eur. J. Pharmacol. 55:323–326. A radioligand binding assay was performed using adrenergic α2 according to the method of Boyajian and Leslie, 1987, J. Pharmacol. Exp. Ther. 241:1092–1098. A radioligand binding assay was performed using adrenergic β according to the method of Feve et al., 1994, Proc. Natl. Acad. Sci. USA 91:5677–5681. A radioligand binding assay was performed using angiotensin AT2 according to the method of Whitebread et al., 1991, Biochem. Biophys. Res. Comm. 181:1365–1371. A radioligand binding assay was performed using calcium channel Type L, dihydropyridine according to the method of Ehlert et al., 1982, Life Sci. 30:2191–2202. A radioligand binding assay was performed using dopamine D2L according to the method of Bunzo et al., 1988, Nature 336:783–787. A radioligand binding assay was performed using endothelin ETA according to the method of Mihara et al., 1994, J. Phrmacol. Exp Ther. 268:1122–1127. A radioligand binding assay was performed using histamine H1 Central according to the method of Hill et al., 1978, J. Neurochem. 31:997–1004. […]
(§3) Quantitation Method: Radioligand Binding […]

The next experiment deals with T1, Edg-6 (Homo sapiens, UniProt O95977).
T1 construct: expressed in transfected cells; host or cells: HTC rat hepatoma cells
T1 sequence (O95977 1-384): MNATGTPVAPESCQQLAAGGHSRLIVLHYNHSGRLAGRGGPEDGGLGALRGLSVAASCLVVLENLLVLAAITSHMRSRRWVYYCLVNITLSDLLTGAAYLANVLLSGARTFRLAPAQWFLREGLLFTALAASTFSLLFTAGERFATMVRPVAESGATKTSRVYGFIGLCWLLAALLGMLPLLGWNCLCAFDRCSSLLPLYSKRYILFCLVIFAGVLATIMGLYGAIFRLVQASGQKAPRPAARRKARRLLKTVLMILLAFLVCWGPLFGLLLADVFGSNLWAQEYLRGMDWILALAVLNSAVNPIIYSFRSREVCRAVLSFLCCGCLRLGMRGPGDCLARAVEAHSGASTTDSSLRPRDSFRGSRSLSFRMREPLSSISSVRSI
The experiment is described as follows: Intracellular calcium assay, S1P-stimulated, HTC cells expressing Edg-6. The format is cell-based. The following applies: concentrations as high as 20 µM. Background: Calcium assays in cells follow changes in intracellular calcium, usually with a dye or a luminescent sensor.

Experiment [1] relates to Calcium Channel Type L, Dihydropyridine. The experiment is described as follows: Radioligand binding assay, 3H Nitrendipine. The conditions noted are these: 10 μM; significance criteria ≧50% of max stimulation or inhibition. Also on record: species or system Wistar Rat. How it is done:
as §1, §2, §3

In another experiment the target is T2, human Edg-3 receptors (Homo sapiens, UniProt Q99500).
T2 construct: expressed in transfected cells; host or cells: HTC rat hepatoma cells
Kind of experiment: Intracellular calcium (FLIPR) assay, S1P-stimulated, HTC cells expressing Edg-3. In kind it is cell-based. The following applies: HTC cells expressing human Edg-3 receptors; FIG. 1. The text has this:
Specific assays for Edg-3 receptor activity are known to those of skill in the art. For example, cells expressing Edg-3 receptors can be contacted with a membrane-permeant calcium sensitive dye such as Fluo-4 AM or a proprietary calcium dye loading kit (e.g., FLIPR Calcium Assay kit, Molecular Devices, Sunnyvale, Calif.). Intracellular calcium is capable of binding to the dye and emitting fluorescent radiation when illuminated at the appropriate wavelength. The cells can thus be illuminated an appropriate wavelength for the dye and any emitting light can be captured by a cooled CCD camera. Changes in fluorescence indicate changes in intracellular calcium resulting from the activation of an Edg-3 receptor. Such changes can be measured advantageously in whole cells in “real-time” (Berridge et al., Nature Reviews 2000, 1:11–21). […]
[…] such as Edg-3, couple to calcium effector pathways, and result in increases in intracellular calcium following receptor activation (An, 1998, J. Cell Biochem. Supp 30–31:147–157). This biological response lends itself to a very efficient, high-throughput screen using a Fluorescence Imaging Plate Reader (FLIPR; Molecular Devices, Sunnyvale, Calif.). The FLIPR system is a real-time, cell-based assay system with continuous fluorescence detection using a cooled CCD camera. […]

Experiment [2] deals with Muscarinic non-selective, Central. Kind of experiment: Radioligand binding assay, 3H Quinuclidinyl benzilate. Set-up: species or system Wistar rat. The conditions noted are these: 10 μM; significance criteria ≧50% of max stimulation or inhibition. How it is done: as §1, §2, §3

Each structure is given as a SMILES string. “Also recorded” adds a separate entry of the source.

T2 sequence (Q99500 whole entry): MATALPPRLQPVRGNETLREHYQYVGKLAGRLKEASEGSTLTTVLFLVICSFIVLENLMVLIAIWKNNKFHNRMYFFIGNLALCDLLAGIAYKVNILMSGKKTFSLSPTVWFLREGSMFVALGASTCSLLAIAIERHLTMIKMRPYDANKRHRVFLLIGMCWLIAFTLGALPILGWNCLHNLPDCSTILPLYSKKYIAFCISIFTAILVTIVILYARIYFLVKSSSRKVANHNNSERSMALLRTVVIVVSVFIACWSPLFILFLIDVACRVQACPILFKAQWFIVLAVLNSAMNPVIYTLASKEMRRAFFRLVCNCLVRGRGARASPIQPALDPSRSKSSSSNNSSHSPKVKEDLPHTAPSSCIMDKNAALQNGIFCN

`Cc1c(-c2ccccc2)nc2ccccc2c1C(=O)NCc1ccc(F)cc1` [Compound 101, 3-methyl-2-phenyl-quinoline-4-carboxylic acid 4-fluoro-benzylamide]: the “activity in standard binding assay, Adrenergic α2” value in the experiment on Adrenergic α2 is reported as “no activity”. Also, the “inhibition of S1P-stimulated calcium increases, Edg-6” value at Edg-6 is “did not inhibit”. In addition, the “activity in standard binding assay, Calcium Channel Type L, Dihydropyridine” value in experiment [1] was “no activity”. Moreover, the “inhibition of Edg-3 stimulated S1P responses (Edg-3 receptors)” value on human Edg-3 receptors is “demonstrate inhibition; also recorded: specifically inhibited”. In addition, in experiment [2], the “activity in standard binding assay, Muscarinic non-selective, Central” value is listed as “no activity”.
